Laboratory results reported in article PMC10049354, “Anti-Inflammatory Effects and Photo- and Neuro-Protective Properties of BIO203, a New Amide Conjugate of Norbixin, in Development for the Treatment of Age-Related Macular Degeneration (AMD)” (International Journal of Molecular Sciences, 2023).
One block for each molecule: values may come before it.

Tests used:
[1] = Powder stability at RT, 4 °C and −20 °C for up to 18 months (LC-MS/MS); assay type: physicochemical; details: for loss of the compound: 4 °C
Method: The potential breakdown of BIO203 compared to BIO201 was assessed every three months in samples stored for up to 18 months at room temperature, 4 °C, and −20 °C. On the day of analysis, weighted samples of BIO203 and norbixin powder were solubilized in DMSO at 10 mg/mL final concentration. DMSO solutions were further diluted 400-fold before performing LC-MS/MS analysis which was performed on an LC 1260 System coupled with Mass Spectrometer QQQ-6420 with DAD (Supplier Agilent Technologies). BIO201 and BIO203 were eluted from a reverse-phase column (2.1 mm × 50 mm; 5 μm particles; Fortis C18) with the following gradient of acetonitrile in water (both containing 0.1% formic acid): 10 to 100% in 10 min), (flow-rate: 0.3 mL/min), (UV detection A: 460 nm, B: 254 nm, DAD: 210–500 nm), (MS scan+: 50 to 800 Frag 120 CAV 5, MS scan-: 50 to 800 Frag 120 CAV 5). The AUC value was used to determine the stability of each compound.

[2] = Acute ocular PK in rats following a single IP administration; assay type: in vivo, rat; details: for intraocular AUC / intraocular Cmax / time of intraocular Cmax post-administration: norbixin 10 mg/kg, BIO203 8.8 mg/kg
Method: The compounds were administered to 8–9 months-old Male Sprague-Dawley rats (n = 3 per group and per collection time) by the intraperitoneal route in vehicle (DMSO/NaCl/NaOH for BIO203 and PBS/Tween 80 (95/5) for norbixin) with an administration volume of 10 mL/kg. The solutions of BIO203 and norbixin were centrifuged, and the clear supernatants were administered to rats. The final injected concentrations were 10 mg/kg and 8.8 mg/kg for norbixin and BIO203, respectively. Doses administered differ because BIO201 and BIO203 solubility are not equivalent in their respective vehicles, and the dose of BIO203 was reduced to avoid toxicity of DMSO present in the vehicle, but the same volumes were injected into animals. Eyes were collected post-administration according to the following timing: 0, 0.08 h, 0.25 h, 0.5 h, 1 h, 1.5 h, 2 h, 4 h, 8 h, and 24 h. After euthanasia, the two eyes of each rat were collected in a Precellys tube, frozen, and stored at −80 °C.
Analysis was performed on an LC 1260 System coupled with Mass Spectrometer QQQ-6420 with DAD (Agilent Technologies). Norbixin and BIO203 were eluted from a reverse-phase column (2.1 × 50 mm; 3 μm particles; Ace Excel C18) with the following gradient of acetonitrile in water (both containing 0.1% formic acid): 55 to 100% in 5 min), (flowrate: 0.3 mL/min). […] were monitored by a mass spectrometer, in positive MRM mode, with the following transitions, respectively, 381.1 -> 144.9 and 478.1 -> 362.9. For quantification of BIO201 and BIO203, calibration curves were prepared under the same conditions as the sample matrix, with various amounts of BIO201 or BIO203 (25 to 10,000 ng/mL in plasma and 5 to 500 ng/mL for eyes).
For determination of concentrations of BIO201 or BIO203 in ocular tissues, each eye was homogenized in CHCl3/MeOH (1:1, v/v) (0.5 mL) with a homogenizer (Precellys-24) during 2 cycles (30 s) at 6500 rpm. The internal standard (retinoic acid at 10 µg/mL) was added, and the organic layer was extracted. The homogenate was then extracted two times with CHCl3/CH2Cl2 (0.5 mL). The combined organic extracts were dried in vacuo without heating (EZ2, Genevac Ltd., Ipswich, UK). Then they were dissolved in 100 μL DMSO/MeOH (1:1, v/v) and transferred to microtiter plates for LC-MS/MS analysis.

[3] = system: albino rats exposed to blue-light-induced photoreceptor degeneration; assay: Blue-light damage (BLD) study in albino rats: retinal histology (photoreceptor layers); assay type: in vivo, rat; details: for preservation of retinal structure (photoreceptor layers): four IP administrations, 6 h blue-light exposure
Method: At the end of the measurement period on Day 7, rats were euthanized by an intraperitoneal injection of pentobarbital. Immediately after euthanasia, both eyeballs were sampled, fixed in Davidson’s solution, and processed for histology. Sections (5 to 7 µm thick) were performed along the vertical meridian and stained with Haematoxylin/Eosin stain. The vertical meridian included the optic nerve. […] The thickness of the outer nuclear layer was measured on each point. […] Histology and photoreceptor counting in mice were performed as previously described.
Sixty-four animals were selected based on good health and on scotopic electroretinogram performed before induction when the A-wave amplitude of both eyes was in the range of the global mean (all animals) of A-wave amplitude ± 1.96 SD. Animals were then randomized into the study groups using a macro function in Excel® software based on the A-wave amplitude of both eyes (mean value). On Day 0, BIO203, negative controls, and comparator (N-tert-Butyl-a-phenylnitrone (PBN)) were intraperitoneally injected using a 25 G needle in rats that have been dark-adapted for 36 h. Individually housed rats were then exposed for 6 h (±5 min) to a continuous blue, fluorescent light (400–540 nm) in clear plastic cages. After exposure and administration, the rats were placed in a dark room for 24 h (±1 h) and then were returned to rearing cyclic light conditions.

IL-8 = system: IL-8; design: method as in PMID 34544906; details: norbixin at 20 mM (so in the source); cited from earlier work
RXR = RXR transactivation assay induced by A2E; assay type: cell-based, pig; details: compound 20 μM; A2E 20 μM; porcine RPE cells
Method: (§1) Transactivation assays were performed as previously described. Briefly, RPE cells were plated in DMEM 2% FCS at a density of 6 × 10^4 cells/cm^2. The next day transfections using the Cignal Reporter Assay Kits for PPAR, RXR, AP-1, and NF-κB were performed with Lipofectamine and Plus Reagent in serum-free medium. Three hours after the transfection, A2E and/or BIO203, both at 20 μM, were added to the culture medium for 24 h. Luciferase activity was measured using the Dual-Luciferase Reporter Assay System and with a luminometer (Infinite M1000 from Tecan, Mannedorf, Switzerland). At least 3 independent transfections were performed in triplicate for each condition.

NF-κB = NF-κB transactivation assay induced by A2E; assay type: cell-based, pig; details: compound 20 μM; A2E 20 μM; p < 0.05
Method: as §1

loss of the compound ([1]; 3 months): 10% | loss of the compound ([1]; 6 months): −20.8% | loss of the compound ([1]; 12 months): −66.4% | left of the initial quantity ([1]; RT, 3 months): 41% | left of the initial quantity ([1]; RT, stabilized between 12 and 18 months): 22.1% | loss of compound ([1]; −20 °C, after one year): −18.1% | stability ([1]; −20 °C, up to 6 months): appeared stable | remaining intraocular concentration at 24 h ([2]; rat eye, single IP, 24 h): no longer detectable | intraocular AUC ([2]; rat eye, single IP): 2.5 ng·h/eye | intraocular Cmax ([2]; rat eye, single IP): less than 8.5 ng/eye | time of intraocular Cmax post-administration ([2]; rat eye, single IP): 0.25 h
SMILES: CC(=C/C=C/C(C)=C/C=C/C=C(C)/C=C/C=C(C)/C=C/C(=O)O)/C=C/C(=O)O [norbixin, 9′-cis-norbixin]
preservation of retinal structure (photoreceptor layers) ([3]; 50 mg/kg, p < 0.0001): partially preserved the retinal structure | effect on IL-8 mRNA expression (IL-8): significantly reduced

SMILES: COC1CCCN(C(=O)/C=C/C(C)=C/C=C/C(C)=C/C=C/C=C(C)/C=C/C=C(C)\C=C\C(=O)O)C1 (stereo not drawn) [BIO203]
stability ([1]; RT, +4 °C and −20 °C, 18 months): stable at all temperatures tested for at least 18 months | inhibition of RXR transactivation induced by A2E (RXR): did not inhibit | change of NF-κB transactivation induced by A2E (NF-κB): −69.4% | ocular AUC increase compared to BIO201 ([2]; discussion summary): > 200 fold | ocular Cmax increase compared to BIO201 ([2]; discussion summary): more than 10 fold | concentration at 24 h ([2]; male, Sprague-Dawley, 8.8 mg/kg, rat eye, single IP, 24 h, read-out: remaining intraocular concentration at 24 h): ~2 ng/mL | intraocular AUC of BIO203 relative to norbixin ([2]; rat eye, single IP): approximately 280 times | intraocular AUC ([2]; rat eye, single IP): 704.1 ng·h/eye | intraocular Cmax ([2]; rat eye, single IP): 133.1 ng/eye | time of intraocular Cmax post-administration ([2]; rat eye, single IP): 1 h | preservation of retinal structure (photoreceptor layers) ([3]; 5 mg/kg): did not observe neuroprotection | preservation of retinal structure (photoreceptor layers) ([3]; 10 mg/kg): did not observe neuroprotection | preservation of retinal structure (photoreceptor layers) ([3]; 25 mg/kg, p < 0.0001): partially preserved the retinal structure | neuroprotective effect compared to vehicle (preliminary experiment) ([3]; BIO203 at 2.5 mg/mL (so in the source), IP, rat BLD): limited neuroprotective effect
